Experiments:
[1] = test system: Zuo1-ΔN8; test: peptide competition with nascent chain crosslinking (XL-Zuo1); assay type: biochemical, Saccharomyces cerevisiae; conditions: RNCs Pgk1-100, RAC-ΔN8, Δssb; peptide added prior to 400 µM BS3 crosslinking, 5 or 50 µM
Excerpt: Fig. 3 Nascent chain binding to the Ssz1-SBD is modulated by the N-terminus of Zuo1. a Amino acid sequence of the ScZuo1N. Arrows indicate the positions of truncations in Zuo1-ΔN8, Zuo1-ΔN16, and Zuo1-ΔN49. The color code is as in Fig. 2a. The secondary structure derived from the crystal structure is depicted above. b The Zuo1N LP-motif interferes with the contact of nascent Pgk1-100 with Zuo1 and Ssz1. Ribosome-free extracts obtained from Δssb1Δssb2 (Zuo1, Ssz1), Δssb1Δssb2 RAC-ΔN8 (ΔN8, Ssz1), or Δssb1Δssb2 RAC-ΔN16 (ΔN16, Ssz1) strains (upper panel) were added to RNCs from Δssb1Δssb2Δzuo1Δssz1 translation extract prior to crosslinking. Crosslink products between Zuo1 and nascent Pgk1-100 (XL-Zuo1) and Ssz1 and nascent Pgk1-100 (XL-Ssz1), respectively. c, d Quantification of crosslinking between nascent Pgk1-100 and Zuo1 (c) and Ssz1 (d). Autoradiographs as shown in (b) were employed for the quantification of nascent Pgk1-100 and the crosslink products XL-Zuo1 and XL-Ssz1. Values were normalized as described in Methods. The efficiency of crosslinking is given as a percentage of nascent Pgk1-100 present in the reaction. […]
(§1) Chemical crosslinking of ribosome-bound nascent chains to Ssb, Zuo1, or Ssz1 was analyzed essentially as described. […] Samples were analyzed on Tris-Tricine gels[56] followed by autoradiography. […]

[2] = target: ATP-bound DnaK; conditions: read-out: affinity for ATP-bound DnaK, low-affinity state; cited from earlier work
[3] = target: T1, ScSsz1-Zuo1NΔLP complex (Saccharomyces cerevisiae, UniProt P32527+P38788); assay type: binding; conditions: fluorescence anisotropy; N-terminally fluorescein-labelled peptide, 40 nM mixed 1:1 with protein; pH 7.5, 200 mM KCl; 30 min, room temperature; Ssz1-Zuo1NΔLP
T1 construct: His6-SUMO (N); made in house
Protocol: (§2) 1 µM BSA was added to prevent unspecific binding of the fluorescently labelled peptide to the microplate (Greiner Bio-One opaque 384 well plate). Fluorescence anisotropy measurements were performed using the LP-peptide (MFSLPTL) or the NR-peptide (NRLLLTG) labelled at the N terminus with fluorescein (Peptide Specialty Laboratories GmbH, Heidelberg). Two-fold serial dilutions of each protein (ScSsz1-Zuo1N or ScSsz1-Zuo1NΔLP) were mixed in a 1:1 ratio with 40 nM peptides in anisotropy buffer in 384-well opaque plates (Greiner Bio One) and were incubated at room temperature for 30 min. Measurements were performed in triplicate using a plate reader (SpectraMax M5e Multi Mode Microplate reader, Molecular Devices). To determine the binding constant (KD) the data were fitted to a one-site binding equation using Python[57].
(§3) Ssz1-Zuo1NΔLP Ssz1-Zuo1NΔLP
(§4) Supplementary Figure 6. Figure S6
(§5) An al ysi s o f su b strate b in di ng to ScRAC co re vari ants b y fl uo rescen ce an i so trop y.
(§6) (a) Binding curves of the fluorescently labeled LP-pept ide or (b ) NR-peptide to Ssz1-Zuo1N (circle) or
(§7) Ssz1-Zuo1NDLP (square) are shown. The mean and standard deviation from three technical replicates
(§8) is indicated. Source data are provided as a Source Data file.

[4] = test system: Ssz1 in RAC-ΔN8; test: peptide competition with nascent chain crosslinking (XL-Ssz1); assay type: biochemical, Saccharomyces cerevisiae
Excerpt: Fig. 3 Nascent chain binding to the Ssz1-SBD is modulated by the N-terminus of Zuo1. a Amino acid sequence of the ScZuo1N. Arrows indicate the positions of truncations in Zuo1-ΔN8, Zuo1-ΔN16, and Zuo1-ΔN49. The color code is as in Fig. 2a. The secondary structure derived from the crystal structure is depicted above. b The Zuo1N LP-motif interferes with the contact of nascent Pgk1-100 with Zuo1 and Ssz1. Ribosome-free extracts obtained from Δssb1Δssb2 (Zuo1, Ssz1), Δssb1Δssb2 RAC-ΔN8 (ΔN8, Ssz1), or Δssb1Δssb2 RAC-ΔN16 (ΔN16, Ssz1) strains (upper panel) were added to RNCs from Δssb1Δssb2Δzuo1Δssz1 translation extract prior to crosslinking. Crosslink products between Zuo1 and nascent Pgk1-100 (XL-Zuo1) and Ssz1 and nascent Pgk1-100 (XL-Ssz1), respectively. c, d Quantification of crosslinking between nascent Pgk1-100 and Zuo1 (c) and Ssz1 (d). Autoradiographs as shown in (b) were employed for the quantification of nascent Pgk1-100 and the crosslink products XL-Zuo1 and XL-Ssz1. Values were normalized as described in Methods. The efficiency of crosslinking is given as a percentage of nascent Pgk1-100 present in the reaction. Experiments were performed in triplicate, with the exception of the XL-Zuo1-ΔN8 (shown in c), which was performed only once. Shown is the mean (bars) and the result of each biologically independent experiment (dots). Error bars indicate the standard deviation of the mean. e Crosslinking of the nascent chain to Ssz1 requires a functional peptide binding groove. Ribosome-free extracts from Δssb1Δssb2 RAC-ΔN8 (Zuo1-ΔN8, Ssz1) or Δssb1Δssb2 RACmut-ΔN8 (Zuo1-ΔN8, Ssz1mut) (upper panel) was added to RNCs generated in Δssb1Δssb2Δzuo1Δssz1 translation extract as described in Fig. 1b. […] RNCs were generated in a Δssb1Δssb2Δzuo1Δssz1 translation extract and ribosome-free extract from Δssb1Δssb2 RAC-ΔN8 (Zuo1-ΔN8, Ssz1) was added. […]
as §1

[5] = target: T2, ScSsz1-Zuo1N complex (Saccharomyces cerevisiae, UniProt P32527+P38788); test: fluorescence anisotropy peptide binding; conditions: N-terminally fluorescein-labelled peptide, 40 nM mixed 1:1 with protein, pH 7.5, 200 mM KCl, 30 min, room temperature, Ssz1-Zuo1N
T2 construct: His6-SUMO (N); made in house
T2 sequence (P38788 1-538): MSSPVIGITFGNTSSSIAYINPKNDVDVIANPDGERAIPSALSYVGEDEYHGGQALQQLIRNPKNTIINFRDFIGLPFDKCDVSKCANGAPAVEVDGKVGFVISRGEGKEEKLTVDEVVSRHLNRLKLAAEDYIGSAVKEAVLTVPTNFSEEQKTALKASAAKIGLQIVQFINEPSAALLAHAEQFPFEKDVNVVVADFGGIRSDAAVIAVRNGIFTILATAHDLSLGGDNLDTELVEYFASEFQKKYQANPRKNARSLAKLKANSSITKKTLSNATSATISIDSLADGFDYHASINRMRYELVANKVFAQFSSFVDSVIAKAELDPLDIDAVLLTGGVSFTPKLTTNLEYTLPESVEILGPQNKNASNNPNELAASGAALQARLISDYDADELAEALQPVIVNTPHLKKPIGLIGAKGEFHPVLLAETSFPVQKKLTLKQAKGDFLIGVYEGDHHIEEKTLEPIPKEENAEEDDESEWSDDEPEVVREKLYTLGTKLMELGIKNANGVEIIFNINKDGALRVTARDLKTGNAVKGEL
T2 sequence (P32527 1-50 partner): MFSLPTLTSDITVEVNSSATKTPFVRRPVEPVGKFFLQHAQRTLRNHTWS
Protocol: as §2, §3, §4, §5, §6, §7, §8

Q: For “NRLLLTG [NR-peptide, NRLLLTG peptide, serves as an Hsp70 model substrate]”, which “effect on nascent chain crosslinking to Zuo1-ΔN8 (XL-Zuo1)” value [1] is on record?
A: Neither of the peptides added prior to the crosslinking reaction affected nascent chain crosslinking to Zuo1-ΔN8

Q: What about the Kd [2] of the same substance?
A: 23.8 ± 3.8 µM

Q: What about the affinity [3] of the same substance?
A: below the detection limit

Q: What about the “displacement of nascent chain” value ([4]; 50 µM peptide, ribosome-bound nascent chain) of the same substance?
A: partly displaced

Q: What about the “effect on nascent chain crosslinking to Ssz1 (XL-Ssz1)” value ([4]; RNCs Pgk1-100, RAC-ΔN8, Δssb, peptide added prior to 400 µM BS3 crosslinking, 5 or 50 µM) of the same substance?
A: to a lesser extent also NR-peptide, significantly reduced crosslinking of the nascent chain to Ssz1

Q: What about the “displacement compared with LP-peptide” value ([4]; ribosome-bound nascent chain, 50 µM peptide) of the same substance?
A: significantly lower

Q: And the affinity [5]?
A: below the detection limit

From publication PMC7083937, “The ribosome-associated complex RAC serves in a relay that directs nascent chains to Ssb” (Nature Communications, 2020)
